These results are taken from patent US8895585B2, “Nicotinamide derivative or salt thereof” (FUJIFILM Corporation, priority 2010, dated 2014).

For one assay, the system named is THP-1 cells. Description: TNFα generation assay. It is filed as cell-based, human. In outline: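 THP-1 cells differentiated to macrophage-like cells with 10 ng/ml IFN-γ for 2 days, preincubated with compound 30 min at room temperature, then cultured 7 h on plates coated with human IgG (10 μg/ml). Secreted TNFα measured by ELISA or AlphaLISA.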
Assay [1] addresses T1, glutathione S-transferase (GST)-fused full-length human Syk protein (Homo sapiens, UniProt P43405).
T1 construct: (GST)-fused full-length human Syk protein; GST (glutathione S-transferase); purchased Carna Biosciences
Kind of assay: Syk enzyme assay. It is filed as biochemical. In outline:
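GST-tagged full-length human Syk (baculovirus) preincubated with compound 15 min at room temperature (pH 7.0, 10 mM MgCl2), then reacted 40 min with 0.4 μM biotinylated peptide substrate and 27 μM ATP (final). Phosphorylation read by HTRF (615/665 nm) after EDTA stop; IC50 reported.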

Where [2] appears, read: Homo sapiens, THP-1, THP-1 cells, Table 22, read-out: IC50 in TNFα generation assay.
Setting [3] is: Syk enzyme assay, Test Example 1, read-out: IC50 of Syk-inhibitory activity.
Setting [4] is: Homo sapiens, THP-1, 7 h, IFN-γ-differentiated THP-1 cells on human IgG-coated plate, cultured 7 hours, read-out: TNFα generation inhibitory activity (IC50).
[5] abbreviates: read-out: Syk-inhibitory activity (IC50).
Setting [6] is: THP-1 cells, Table 22, read-out: IC50 in TNFα generation assay.

“And” between values parts separate entries of the source, which are not always exact repeats. Equal entries are not always repeated. Where two headings read alike, the source gives them in different places.

In the case of `NC(=O)c1cc(F)c(N[C@@H]2CCCC[C@@H]2N)nc1Nc1ccnc(Cl)c1` (relative stereo) [Example 006-163, 6-((cis-2-aminocyclohexyl)amino)-2-((2-chloropyridin-4-yl)amino)-5-fluoronicotinamide], the IC50 in the assay on THP-1 cells (setting [2]) was 0.065 to 0.13 µM; in assay [1] (setting [3]), < 0.01 µM.
For `NC(=O)c1cc(F)c(N[C@@H]2CCCC[C@@H]2N)nc1Nc1cncc2c1ccn2CCN1CCCC1` [Example 004-007], in that order: 0.065 to 0.13 µM and < 0.01 µM.
Taken in the same sequence, the figures for `CCC[C@@H](Nc1nc(Nc2ccnc(OC)c2)c(C(N)=O)cc1F)[C@@H](N)CC` [Example 006-404, 6-(((3S,4R)-3-aminoheptan-4-yl)amino)-5-fluoro-2-((2-methoxypyridin-4-yl)amino)nicotinamide] were 0.13 to 0.2 µM and < 0.01 µM.
For `COc1cc(Nc2nc(N[C@@H](CN)c3ccccc3)c(F)cc2C(N)=O)ccn1` [Example 006-133, (R)-6-((2-amino-1-phenylethyl)amino)-5-fluoro-2-((2-methoxypyridin-4-yl)amino)nicotinamide], in that order: 0.13 to 0.2 µM and 0.01 to 0.05 µM.
Take `CC(C)C[C@@H](Nc1nc(Nc2ccc3ncccc3c2)c(C(N)=O)cc1F)C(N)=O` [Example 012-009]: the IC50 with THP-1 cells (setting [2]) was 0.065 to 0.13 µM; in assay [1] (setting [3]), < 0.01 µM.
Taken in the same sequence, the figures for `CC[C@@H](Nc1nc(Nc2cnc(C)c(C3CC3)c2)c(C(N)=O)cc1F)[C@H](C)N` [Example 006-272, 6-(((2S,3R)-2-aminopentan-3-yl)amino)-2-((5-cyclopropyl-6-methylpyridin-3-yl)amino)-5-fluoronicotinamide] were 0.065 to 0.13 µM and 0.01 to 0.05 µM.
As for `CC[C@H](N)[C@@H](C)Nc1nc(Nc2ccc3c(cnn3CC)c2)c(C(N)=O)cc1F` [Example 006-362, 6-(((2R,3S)-3-aminopentan-2-yl)amino)-2-((1-ethyl-1H-indazol-5-yl)amino)-5-fluoronicotinamide], the values for the IC50 (with THP-1 cells (setting [2]); in assay [1] (setting [3])) were 0.13 to 0.2 µM and < 0.01 µM, respectively.
Take `NC(=O)c1cc(F)c(N[C@@H]2CCCC[C@@H]2N)nc1Nc1cnc2ccccc2c1` (relative stereo) [Example 7, 6-(cis-2-aminocyclohexylamino)-5-fluoro-2-(quinolin-3-ylamino)nicotinamide]: the IC50 in the assay on THP-1 cells (setting [4]) is ≤ 0.2 µM; in assay [1] (setting [5]), ≤ 1 µM.
As for `NC(=O)c1cc(F)c(N[C@@H]2CCCC[C@@H]2N)nc1Nc1cncc(-n2cccc2)c1` (relative stereo) [Example 006-123, 2-((5-(1H-pyrrol-1-yl)pyridin-3-yl)amino)-6-(cis-2-aminocyclohexylamino)-5-fluoronicotinamide], the IC50 with THP-1 cells (setting [2]) was 0.13 to 0.2 µM; in assay [1] (setting [3]), < 0.01 µM.
As for `Cc1cc(C)cc(Nc2nc(NCCN)c(Br)cc2C(N)=O)c1` [Example 035-009], the IC50 in the assay on THP-1 cells (setting [2]) is 0.13 to 0.2 µM; in assay [1] (setting [3]) it was < 0.01 µM and 0.01 to 0.05 µM.
For the compound `NC(=O)c1cc(F)c(N[C@@H]2CCCC[C@@H]2N)nc1Nc1cncc(-c2cccnc2)c1` [Example 004-103], the figures for the IC50 (in the assay on THP-1 cells (setting [2]); in assay [1] (setting [3])) were 0.065 to 0.13 µM and 0.01 to 0.05 µM, respectively.
For “6-(((2R,3S)-3-aminobutan-2-yl)amino)-2- (3,5-dimethoxyphenyl)amino)-5- fluoronicotinamide 6-(((2S,3R)-3-aminobutan-2-yl)amino)-2- (3,5-dimethoxyphenyl)amino)-5- fluoronicotinamide [Example 006-107]”, the IC50 was < 0.065 µM in the assay on THP-1 cells (setting [6]) and < 0.01 µM in assay [1] (setting [3]).
With `CCCc1nn(CC(F)F)c2ccc(Nc3nc(N[C@@H]4CCCC[C@@H]4N)c(F)cc3C(N)=O)cc12` [Example 006-460, 6-(((1R,2S)-2-aminocyclohexyl)amino)-2-((1-(2,2-difluoroethyl)-3-propyl-1H-indazol-5-yl)amino)-5-fluoronicotinamide], the IC50 was 0.065 to 0.13 µM with THP-1 cells (setting [2]) and < 0.01 µM in assay [1] (setting [3]).
For `CNc1ccc(-c2cncc(Nc3nc(N[C@@H]4CCCC[C@@H]4N)c(F)cc3C(N)=O)c2)cc1` (relative stereo) [Example 004-220, 6-(cis-2-aminocyclohexylamino)-5-fluoro-2-((5-(4-(methylamino)phenyl)pyridin-3-yl)amino)nicotinamide], in that order: 0.065 to 0.13 µM and < 0.01 µM.
`NC(=O)c1cc(F)c(N[C@@H]2CCCC[C@@H]2N)nc1Nc1cncc(-c2cccc(N)c2)c1` [Example 043-000]: the IC50 is 0.065 to 0.13 µM with THP-1 cells (setting [6]) and < 0.01 µM in assay [1] (setting [3]).
For `CCC[C@@H](Nc1nc(Nc2cccc3ncccc23)c(C(N)=O)cc1F)[C@H](C)N` [Example 006-307, 6-(((2S,3R)-2-aminohexan-3-yl)amino)-5-fluoro-2-(quinolin-5-ylamino)nicotinamide], the values for the IC50 (in the assay on THP-1 cells (setting [2]); in assay [1] (setting [3])) were 0.065 to 0.13 µM and < 0.01 µM, respectively.
Taken in the same sequence, the figures for `C[C@H](N)[C@H](Nc1nc(Nc2cncc(C3CC3)c2)c(C(N)=O)cc1F)C1CC1` [Example 006-371, 6-(((1R,2S)-2-amino-1-cyclopropylpropyl)amino)-2-((5-cyclopropylpyridin-3-yl)amino)-5-fluoronicotinamide] were 0.065 to 0.13 µM and < 0.01 µM.
For `CC[C@@H](Nc1nc(Nc2cncc3ccccc23)c(C(N)=O)cc1F)[C@H](C)N` [Example 006-262, 6-(((2S,3R)-2-aminopentan-3-yl)amino)-5-fluoro-2-((isoquinolin-4-yl)amino)nicotinamide], in that order: < 0.065 µM and < 0.01 µM.
For `CCC[C@@H](Nc1nc(Nc2cncc(C3CC3)c2)c(C(N)=O)cc1F)[C@H](C)N` [Example 006-223, 6-(((2S,3R)-2-aminohexan-3-yl)amino)-2-((5-cyclopropylpyridin-3-yl)amino)-5-fluoronicotinamide], in that order: < 0.065 µM and < 0.01 µM.
Turning to `Cc1nn(CC(F)F)c2ccc(Nc3nc(N[C@H](C4CC4)[C@H](C)N)c(F)cc3C(N)=O)cc12` [Example 006-584, 6-(((1R,2S)-2-amino-1-cyclopropylpropyl)amino)-2-((1-(2,2-difluoroethyl)-3-methyl-1H-indazol-5-yl)amino)-5-fluoronicotinamide], the figures for the IC50 (with THP-1 cells (setting [2]); in assay [1] (setting [3])) were 0.065 to 0.13 µM and < 0.01 µM, respectively.
In the case of `CC(C)C[C@H](CN)Nc1nc(Nc2ccnc(-n3cncn3)c2)c(C(N)=O)cc1F` [Example 006-153, (R)-2-((2-(1H-1,2,4-triazol-1-yl)pyridin-4-yl)amino)-6-((1-amino-4-methylpentan-2-yl)amino)-5-fluoronicotinamide], the values for the IC50 (in the assay on THP-1 cells (setting [2]); in assay [1] (setting [3])) were < 0.065 µM and < 0.01 µM, respectively.
Taken in the same sequence, the figures for `NC(=O)c1cc(F)c(N[C@@H]2CCCC[C@@H]2N)nc1Nc1cnc2cc(N3CCOCC3)ccc2c1` (relative stereo) [Example 004-123, 6-(cis-2-aminocyclohexylamino)-5-fluoro-2-((7-morpholinoquinolin-3-yl)amino)-nicotinamide] were 0.13 to 0.2 µM and < 0.01 µM.
As to `NC(=O)c1cc(F)c(N[C@@H]2CCCC[C@@H]2N)nc1Nc1cnc2[nH]ccc2c1` (relative stereo) [Example 004-061], the values for the IC50 (with THP-1 cells (setting [2]); in assay [1] (setting [3])) were < 0.065 µM and < 0.01 µM, respectively.
Regarding `COCCOc1cc(Nc2nc(N[C@H](c3ccc(F)cc3)[C@H](C)N)c(F)cc2C(N)=O)ccn1` [Example 006-559, 6-(((1R,2S)-2-amino-1-(4-fluorophenyl)propyl)amino)-5-fluoro-2-((2-(2-methoxyethoxy)pyridin-4-yl)amino)nicotinamide], the IC50 was 0.065 to 0.13 µM in the assay with THP-1 cells (setting [2]) and < 0.01 µM in assay [1] (setting [3]).
Taken in the same sequence, the figures for `COCCn1cc2cc(Nc3nc(N[C@@H]4CCCC[C@@H]4N)c(F)cc3C(N)=O)ccc2n1` (relative stereo) [Example 004-094, 6-(cis-2-aminocyclohexylamino)-5-fluoro-2-((2-(2-methoxyethyl)-2H-indazol-5-yl)amino)-nicotinamide] were 0.13 to 0.2 µM and < 0.01 µM.
Regarding `COc1cc(Nc2nc(N[C@@H]3CCCC[C@@H]3N)c(F)cc2C(N)=O)cc(OC)c1` (single isomer, unassigned) [Example 21, 6-(cis-2-aminocyclohexylamino)-2-(3,5-dimethoxyphenylamino)-5-fluoronicotinamide], the IC50 was ≤ 0.2 µM with THP-1 cells (setting [4]) and ≤ 1 µM in assay [1] (setting [5]).
`CCC[C@@H](Nc1nc(Nc2ccc3cccnc3c2)c(C(N)=O)cc1F)[C@H](C)N` [Example 006-244, 6-(((2S,3R)-2-aminohexan-3-yl)amino)-5-fluoro-2-((quinolin-7-yl)amino)nicotinamide]: the results for the IC50 (in the assay on THP-1 cells (setting [2]); in assay [1] (setting [3])) were 0.065 to 0.13 µM and < 0.01 µM, respectively.
For `CC[C@H](N)[C@@H](CC)Nc1nc(Nc2cc(OC)nc(OC)c2)c(C(N)=O)cc1F` [Example 006-379, 6-(((3R,4S)-4-aminohexan-3-yl)amino)-2-((2,6-dimethoxypyridin-4-yl)amino)-5-fluoronicotinamide], the IC50 in the assay on THP-1 cells (setting [2]) was 0.13 to 0.2 µM; in assay [1] (setting [3]), < 0.01 µM.
In the case of `COCCn1ncc2cc(Nc3nc(N[C@@H]4CCCC[C@@H]4N)c(F)cc3C(N)=O)ccc21` [Example 004-172, 6-((1R,2S)-2-aminocyclohexylamino)-5-fluoro-2-((1-(2-methoxyethyl)-1H-indazol-5-yl)-amino)nicotinamide], the IC50 in the assay on THP-1 cells (setting [6]) is 0.065 to 0.13 µM; in assay [1] (setting [3]), < 0.01 µM.
Take `NC(=O)c1cc(F)c(NC2CCCCC2N)nc1Nc1cncc(NC(=O)c2cccc(F)c2F)c1` (stereo not drawn) [Example 027-030]: the IC50 with THP-1 cells (setting [2]) lay within 0.13 to 0.2 µM; in assay [1] (setting [3]) it was 0.01 to 0.05 µM.
